{"source": "patent US8883766B2", "about": "“Ion channel modulators and methods of use” (Vertex Pharmaceuticals Incorporated, priority 2007, dated 2014)", "data": [{"biological_target": "T1, NaV1.3 (Homo sapiens, UniProt Q9NY46)", "T1 construct": "expressed in transfected cells", "T1 sequence (Q9NY46 whole entry)": "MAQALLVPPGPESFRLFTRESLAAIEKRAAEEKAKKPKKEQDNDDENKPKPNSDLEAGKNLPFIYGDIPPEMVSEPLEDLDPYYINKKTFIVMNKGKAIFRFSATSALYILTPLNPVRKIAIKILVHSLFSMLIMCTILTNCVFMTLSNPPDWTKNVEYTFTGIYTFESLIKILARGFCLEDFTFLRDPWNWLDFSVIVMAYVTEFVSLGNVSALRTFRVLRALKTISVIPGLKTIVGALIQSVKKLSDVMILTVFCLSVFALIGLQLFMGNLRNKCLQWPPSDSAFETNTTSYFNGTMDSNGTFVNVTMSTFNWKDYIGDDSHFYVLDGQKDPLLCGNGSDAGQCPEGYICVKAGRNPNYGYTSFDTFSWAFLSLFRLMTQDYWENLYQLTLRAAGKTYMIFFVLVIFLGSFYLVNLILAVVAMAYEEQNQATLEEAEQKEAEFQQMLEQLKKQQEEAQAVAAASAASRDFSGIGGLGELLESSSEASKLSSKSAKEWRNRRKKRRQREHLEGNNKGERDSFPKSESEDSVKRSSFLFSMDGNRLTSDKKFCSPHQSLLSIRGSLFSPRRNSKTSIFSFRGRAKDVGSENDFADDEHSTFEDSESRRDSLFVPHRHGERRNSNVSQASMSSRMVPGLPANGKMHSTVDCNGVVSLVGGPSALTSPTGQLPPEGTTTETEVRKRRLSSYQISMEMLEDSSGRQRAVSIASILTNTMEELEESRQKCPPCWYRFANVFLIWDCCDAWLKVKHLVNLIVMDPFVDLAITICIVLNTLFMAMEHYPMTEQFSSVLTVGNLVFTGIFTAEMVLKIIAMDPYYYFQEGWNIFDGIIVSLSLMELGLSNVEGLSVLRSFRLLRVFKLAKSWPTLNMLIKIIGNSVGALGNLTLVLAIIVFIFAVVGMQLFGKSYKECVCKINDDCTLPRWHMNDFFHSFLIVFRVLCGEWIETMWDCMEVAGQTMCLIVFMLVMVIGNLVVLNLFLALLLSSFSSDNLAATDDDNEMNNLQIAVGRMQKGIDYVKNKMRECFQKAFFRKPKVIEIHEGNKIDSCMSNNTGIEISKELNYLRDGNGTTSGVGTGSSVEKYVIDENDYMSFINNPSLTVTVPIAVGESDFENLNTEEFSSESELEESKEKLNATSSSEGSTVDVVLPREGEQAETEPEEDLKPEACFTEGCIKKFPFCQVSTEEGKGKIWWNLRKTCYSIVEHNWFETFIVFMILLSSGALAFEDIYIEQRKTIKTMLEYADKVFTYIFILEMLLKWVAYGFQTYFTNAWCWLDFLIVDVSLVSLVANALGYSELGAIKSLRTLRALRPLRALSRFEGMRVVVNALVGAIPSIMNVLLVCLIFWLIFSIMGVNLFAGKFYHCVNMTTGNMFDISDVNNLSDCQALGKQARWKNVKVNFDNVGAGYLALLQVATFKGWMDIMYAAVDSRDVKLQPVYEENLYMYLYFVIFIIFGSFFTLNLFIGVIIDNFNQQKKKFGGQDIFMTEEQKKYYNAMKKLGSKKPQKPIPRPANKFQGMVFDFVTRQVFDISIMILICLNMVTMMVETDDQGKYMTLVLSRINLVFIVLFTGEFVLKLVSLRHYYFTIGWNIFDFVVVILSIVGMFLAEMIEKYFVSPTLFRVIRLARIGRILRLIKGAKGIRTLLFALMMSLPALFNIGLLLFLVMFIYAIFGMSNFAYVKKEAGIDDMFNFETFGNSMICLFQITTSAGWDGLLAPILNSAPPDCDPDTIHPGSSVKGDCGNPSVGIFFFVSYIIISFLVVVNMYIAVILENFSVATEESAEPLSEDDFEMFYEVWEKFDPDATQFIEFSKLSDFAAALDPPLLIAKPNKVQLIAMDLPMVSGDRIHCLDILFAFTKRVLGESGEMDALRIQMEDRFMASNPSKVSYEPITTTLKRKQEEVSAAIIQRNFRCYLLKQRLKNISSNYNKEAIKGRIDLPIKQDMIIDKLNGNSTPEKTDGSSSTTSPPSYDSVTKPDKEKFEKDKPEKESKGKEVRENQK", "assay": "VIPR optical membrane potential assay with electrical stimulation, HEK293 cells stably expressing NaV1.3", "type": "cell-based", "conditions": "compound activity for the NaV1.3 receptors", "procedure": "Compounds of the invention are useful as antagonists of voltage-gated sodium ion channels. Antagonist properties of test compounds were assessed as follows. Cells expressing the NaV of interest were placed into microtiter plates. After an incubation period, the cells were stained with fluorescent dyes sensitive to the transmembrane potential. The test compounds were added to the microtiter plate. The cells were stimulated with either chemical or electrical means to evoke a NaV dependent membrane potential change from unblocked channels, which was detected and measured with trans-membrane potential-sensitive dyes. Antagonists were detected as a decreased membrane potential response to the stimulus. The optical membrane potential assay utilized voltage-sensitive FRET sensors described by Gonzalez and Tsien (See, Gonzalez, J. E. and R. Y. Tsien (1995) “Voltage sensing by fluorescence resonance energy transfer in single cells” Biophys J 69(4): 1272-80, and Gonzalez, J. E. and R. Y. Tsien (1997) “Improved indicators of cell membrane potential that use fluorescence resonance energy transfer” Chem Biol 4(4): 269-77) in combination with instrumentation for measuring fluorescence changes such as the Voltage/Ion Probe Reader (VIPR®) (See, Gonzalez, J. E., K. Oades, et al. (1999) “Cell-based assays and instrumentation for screening ion-channel targets” Drug Discov Today 4(9): 431-439).\nThe following is an example of how NaV1.3 inhibition activity is measured using the optical membrane potential method #2. Other subtypes are performed in an analogous mode in a cell line expressing the NaV of interest.\nHEK293 cells stably expressing NaV1.3 are plated into 96-well microtiter plates. After an appropriate incubation period, the cells are stained with the voltage sensitive dyes CC2-DMPE/DiSBAC2(3) as follows.\n2×CC2-DMPE=20 μM CC2-DMPE: 10 mM CC2-DMPE is vortexed with an equivalent volume of 10% pluronic, followed by vortexing in required amount of HBSS containing 10 mM HEPES. Each cell plate will require 5 mL of 2×CC2-DMPE. 50 μL of 2×CC2-DMPE is added to wells containing washed cells, resulting in a 10 μM final staining concentration. The cells are stained for 30 minutes in the dark at RT.\n2×DISBAC2(3) with ABSC1=6 μM DISBAC2(3) and 1 mM ABSC1: The required amount of 10 mM DISBAC2(3) is added to a 50 ml conical tube and mixed with 1 μL 10% pluronic for each mL of solution to be made and vortexed together. Then HBSS/HEPES is added to make up 2× solution. Finally, the ABSC1 is added.\nThe 2×DiSBAC2(3) solution can be used to solvate compound plates. Note that compound plates are made at 2× drug concentration. Wash stained plate again, leaving residual volume of 50 μL. Add 50 μL/well of the 2×DiSBAC2(3) w/ ABSC1. Stain for 30 minutes in the dark at RT.\nThe electrical stimulation instrument and methods of use are described in ION Channel Assay Methods PCT/US01/21652, herein incorporated by reference. The instrument comprises a microtiter plate handler, an optical system for exciting the coumarin dye while simultaneously recording the coumarin and oxonol emissions, a waveform generator, a current- or voltage-controlled amplifier, and a device for inserting electrodes in well. Under integrated computer control, this instrument passes user-programmed electrical stimulus protocols to cells within the wells of the microtiter plate.\nUse the current-controlled amplifier to deliver stimulation wave pulses for 3 s. Two seconds of pre-stimulus recording are performed to obtain the un-stimulated intensities. Five seconds of post-stimulation recording are performed to examine the relaxation to the resting state.\nData are analyzed and reported as normalized ratios of background-subtracted emission intensities measured in the 460 nm and 580 nm channels. Background intensities are then subtracted from each assay channel. […]", "units": {"IC50": "µM"}, "values": [{"smiles": "COC(=O)NS(=O)(=O)c1ccc(NC(=O)CCn2ccc3cc(Cl)ccc32)cc1", "note": "[Compound 51]", "IC50": "> 5"}, {"smiles": "CCOC(=O)NS(=O)(=O)c1ccc(N2CCN(C(=O)[C@@H](C)N3CCCc4cc(Cl)ccc43)CC2)cc1", "note": "[Compound 52]", "IC50": "> 5"}, {"smiles": "COC(=O)NS(=O)(=O)c1ccc(N2CC[C@H](N3CCCc4cc(Cl)ccc43)C2=O)cc1", "note": "[Compound 53, (S)-methyl 4-(3-(6-chloro-3,4-dihydroquinolin-1(2H)-yl)-2-oxopyrrolidin-1-yl)phenylsulfonylcarbamate]", "IC50": "> 5"}, {"smiles": "C[C@H](C(=O)Nc1ccc(S(=O)(=O)NC(=O)NC(C)(C)C)cc1)n1ccc2c(F)cccc21", "note": "[Compound 54]", "IC50": "> 5"}, {"smiles": "COC(=O)NS(=O)(=O)c1ccc(NC(=O)[C@@H](C)N2CCCc3cc(F)ccc32)cc1", "note": "[Compound 55]", "IC50": "> 5"}, {"smiles": "COC(=O)NS(=O)(=O)c1ccc(NC(=O)Cc2ccccc2)cc1", "note": "[Compound 56]", "IC50": "> 5"}, {"smiles": "C[C@H](C(=O)Nc1ccc(S(=O)(=O)NC(=O)N2CCN(C)CC2)cc1)n1ccc2c(F)cccc21", "note": "[Compound 57]", "IC50": "> 5"}, {"smiles": "COC(=O)NS(=O)(=O)c1ccc(NC(=O)C(C)n2ccc3c(F)cccc32)cc1", "note": "(stereo not shown) [Compound 59]", "IC50": "< 2"}, {"smiles": "COC(=O)NS(=O)(=O)c1ccc(NC(=O)COc2ccnc3c(C(F)(F)F)cccc23)cc1", "note": "[Compound 60]", "IC50": "> 5"}, {"smiles": "COC(=O)NS(=O)(=O)c1ccc(N2CCN(C(=O)[C@@H](C)N3CCCc4cc(F)ccc43)CC2)cc1", "note": "[Compound 61, (R)-methyl 4-(4-(2-(6-fluoro-3,4-dihydroquinolin-1(2H)-yl)propanoyl)piperazin-1-yl)phenylsulfonylcarbamate]", "IC50": "> 5"}, {"smiles": "COC(=O)NS(=O)(=O)c1ccc(NC(=O)[C@@H](C)N2CCCc3cccc(Cl)c32)cc1", "note": "[Compound 62]", "IC50": "> 5"}, {"smiles": "C[C@H](C(=O)Nc1ccc(S(=O)(=O)NC(N)=O)cc1)n1ccc2c(F)cccc21", "note": "[Compound 63]", "IC50": "2 to 5"}, {"smiles": "COC(=O)NS(=O)(=O)c1ccc(NC(=O)COc2ccc(Cl)c(Cl)c2)cc1", "note": "[Compound 64]", "IC50": "> 5"}, {"smiles": "COC(=O)NS(=O)(=O)c1ccc(NC(=O)[C@H](C)Oc2cccc(Cl)c2Cl)cc1", "note": "[Compound 65]", "IC50": "> 5"}, {"smiles": "Cc1cc(C(=O)NS(=O)(=O)c2ccc(NC(=O)[C@@H](C)n3ccc4c(F)cccc43)cc2)c(C)o1", "note": "[Compound 66, (R)—N-(4-(2-(4-fluoro-1H indol-1-yl)propanamido)phenylsulfonyl)-2,5-dimethylfuran-3-carboxamide]", "IC50": "> 5"}, {"smiles": "COC(=O)NS(=O)(=O)c1ccc(NC(=O)[C@H](C)N2CCCc3cc(F)ccc32)cc1", "note": "[Compound 67]", "IC50": "> 5"}, {"smiles": "COC(=O)NS(=O)(=O)c1ccc(NC(=O)[C@H](C)n2ccc3cccc(F)c32)cc1", "note": "[Compound 68]", "IC50": "> 5"}, {"smiles": "COC(=O)NS(=O)(=O)c1ccc(NC(=O)Cn2ccc3cccc(F)c32)cc1", "note": "[Compound 69]", "IC50": "> 5"}, {"smiles": "COC(=O)NS(=O)(=O)c1ccc(NC(=O)Cn2ccc3ccc(Cl)cc32)cc1", "note": "[Compound 70]", "IC50": "> 5"}, {"smiles": "CCC(=O)NS(=O)(=O)c1ccc(NC(=O)COc2ccnc3c(C(F)(F)F)cccc23)cc1", "note": "[Compound 71]", "IC50": "> 5"}, {"smiles": "COC(=O)NS(=O)(=O)c1ccc(NC(=O)[C@@H](CO)N2CCCc3cc(Cl)ccc32)cc1", "note": "[Compound 73]", "IC50": "> 5"}, {"smiles": "C[C@H](C(=O)Nc1ccc(S(=O)(=O)NC(=O)c2ccccc2)cc1)n1ccc2c(F)cccc21", "note": "[Compound 74, (R)—N-(4-(2-(4-fluoro-1H indol-1-yl)propanamido)phenylsulfonyl)benzamide]", "IC50": "> 5"}, {"smiles": "COC(=O)NS(=O)(=O)c1ccc(NC(=O)[C@H](C)N2CCCc3cc(Cl)ccc32)cc1", "note": "[Compound 75]", "IC50": "> 5"}, {"smiles": "CCC#CCOC(=O)NS(=O)(=O)c1ccc(NC(=O)[C@@H](C)n2ccc3c(F)cccc32)cc1", "note": "[Compound 76]", "IC50": "> 5"}, {"smiles": "COC(=O)NS(=O)(=O)c1ccc(NC(=O)[C@H](CC(C)C)n2ccc3c(F)cccc32)cc1", "note": "[Compound 77]", "IC50": "> 5"}, {"smiles": "COC(=O)NS(=O)(=O)c1ccc(NC(=O)[C@@H](C)Oc2ccc(Cl)cc2C)cc1", "note": "[Compound 78]", "IC50": "> 5"}, {"smiles": "CCCCNC(=O)NS(=O)(=O)c1ccc(NC(=O)[C@@H](C)n2ccc3c(F)cccc32)cc1", "note": "[Compound 79]", "IC50": "> 5"}, {"smiles": "COC(=O)NS(=O)(=O)c1ccc(NC(=O)[C@H](C)n2ccc3ccc(Cl)cc32)cc1", "note": "[Compound 80]", "IC50": "> 5"}, {"smiles": "COC(=O)NS(=O)(=O)c1ccc(NC(=O)c2cc3c(F)cc(Cl)cc3[nH]2)cc1", "note": "[Compound 81]", "IC50": "> 5"}, {"smiles": "CC(=O)NS(=O)(=O)c1ccc(NC(=O)[C@@H](C)n2ccc3c(F)cccc32)cc1", "note": "[Compound 82]", "IC50": "> 5"}, {"smiles": "COC(=O)NS(=O)(=O)c1ccc(NC(=O)Cn2cc(C)c3cc(Cl)ccc32)cc1", "note": "[Compound 83]", "IC50": "> 5"}, {"smiles": "COC(=O)NS(=O)(=O)c1ccc(NC(=O)[C@H](C)N2CCCc3ccccc32)cc1", "note": "[Compound 84]", "IC50": "> 5"}, {"smiles": "COC(=O)NS(=O)(=O)c1ccc(NC(=O)C(C)(C)n2ccc3c(F)cccc32)cc1", "note": "[Compound 85]", "IC50": "> 5"}, {"smiles": "COC(=O)NS(=O)(=O)c1ccc(NC(=O)[C@@H](CC(C)C)N2CCCc3cc(Cl)ccc32)cc1", "note": "[Compound 86]", "IC50": "2 to 5"}, {"smiles": "COC(=O)NS(=O)(=O)c1ccc(NC(=O)[C@@H](C)n2ccc3ccc(C(F)(F)F)cc32)cc1", "note": "[Compound 87, (R)-methyl 4-(2-(6-(trifluoromethyl)-1H-indol-1-yl)propanamido)phenylsulfonylcarbamate]", "IC50": "< 2"}, {"smiles": "COC(=O)NS(=O)(=O)c1ccc(NC(=O)c2ccc(OC)cc2)cc1", "note": "[Compound 88]", "IC50": "> 5"}]}, {"biological_target": "T1, NaV1.3", "assay": "not given", "conditions": "read-out: TTX IC50; cited from earlier work", "units": {"IC50": "µM"}, "values": [{"smiles": "NC1=N[C@H](O)[C@H]2[C@H]3O[C@]4(O)O[C@@H]([C@@H](O)[C@@]2(N1)[C@@H]4O)[C@]3(O)CO", "note": "[TTX, tetrodotoxin]", "IC50": 0.015}]}]}
